Results taken from ChEMBL document CHEMBL1130514, “Design and synthesis of conformationally constrained arginal thrombin inhibitors” (Bioorg Med Chem Lett, 1997).
Where a SMILES comes first, the peptide text is derived from it. [ ]: non-standard residue; d: D form. The star is where a group is joined. dNMePhg = CN[C@@H](C(=O)O)c1ccccc1; PhAc = O=C(Cc1ccccc1)*

Columns and labels:
Prothrombin = Prothrombin (Homo sapiens, UniProt P00734); assay: In vitro ability to inhibit the activity of human alpha Thrombin
Serine protease 1 = molecular target: T1, Serine protease 1 (Bos taurus, UniProt P00760); assay: In vitro ability to inhibit the activity of Trypsin
T1 sequence (P00760 whole entry): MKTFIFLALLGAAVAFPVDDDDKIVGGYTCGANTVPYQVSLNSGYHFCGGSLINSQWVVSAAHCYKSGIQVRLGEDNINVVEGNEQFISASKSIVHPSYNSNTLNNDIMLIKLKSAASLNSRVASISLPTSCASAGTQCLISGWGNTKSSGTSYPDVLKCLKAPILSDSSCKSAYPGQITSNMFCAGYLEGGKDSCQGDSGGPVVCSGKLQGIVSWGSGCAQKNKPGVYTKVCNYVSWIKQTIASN

Plasminogen = Plasminogen (Homo sapiens, UniProt P00747); assay: In vitro ability to inhibit the activity of Plasmin
Chain of Plasminogen (P00747 97-580 limits assumed): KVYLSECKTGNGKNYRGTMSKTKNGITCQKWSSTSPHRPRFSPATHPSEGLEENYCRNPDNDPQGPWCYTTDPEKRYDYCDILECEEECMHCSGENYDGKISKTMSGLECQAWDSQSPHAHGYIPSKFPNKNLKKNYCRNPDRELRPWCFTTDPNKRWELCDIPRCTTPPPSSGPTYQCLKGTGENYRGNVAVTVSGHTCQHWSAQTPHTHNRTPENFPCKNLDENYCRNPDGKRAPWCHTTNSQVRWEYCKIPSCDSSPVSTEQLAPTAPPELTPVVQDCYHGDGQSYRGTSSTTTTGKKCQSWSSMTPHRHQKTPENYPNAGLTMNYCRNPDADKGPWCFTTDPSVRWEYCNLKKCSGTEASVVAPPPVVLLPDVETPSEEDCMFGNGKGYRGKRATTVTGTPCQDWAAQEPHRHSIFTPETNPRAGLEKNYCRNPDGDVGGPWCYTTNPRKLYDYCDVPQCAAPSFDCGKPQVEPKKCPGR
Chain of Plasminogen (P00747 581-810 limits assumed): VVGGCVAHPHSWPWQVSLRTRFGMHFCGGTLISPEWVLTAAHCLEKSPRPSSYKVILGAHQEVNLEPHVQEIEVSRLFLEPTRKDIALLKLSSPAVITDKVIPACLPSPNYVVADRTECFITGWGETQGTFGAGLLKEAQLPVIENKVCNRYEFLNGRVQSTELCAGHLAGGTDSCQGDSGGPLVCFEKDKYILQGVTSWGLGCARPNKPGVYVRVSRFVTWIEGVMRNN

SMILES	IC50 (Prothrombin) [µM]	IC50 (Serine protease 1) [µM]	IC50 (Plasminogen) [µM]
N=C(N)NCCC[C@@H](C=O)NC(=O)[C@@H]1CCCN1C(=O)Cc1ccccc1 (PhAc-Pro-Arg-aldehyde)	1.6	7.2	41
CN[C@H](Cc1ccccc1)C(=O)N1CCC[C@H]1C(=O)N[C@H](C=O)CCCN=C(N)N		0.02	0.5
CC1CNc2c(cccc2S(=O)(=O)N[C@@H](CCCNC(=N)N)C(=O)N2CCC(C)C[C@@H]2C(=O)O)C1 (single isomer, unassigned) [ARGATROBAN]		5	800
CC1CNc2c(cccc2S(=O)(=O)N[C@H]2CCC[C@H]3CC[C@@H](C(=O)N[C@H]4CCCN(C(=N)N)C4O)N3C2=O)C1 (stereo partly specified)	0.018	0.1	1.04
CC(=O)N[C@@]1(Cc2ccccc2)CC[C@H]2CC[C@@H](C(=O)N[C@H]3CCCN(C(=N)N)C3O)N2C1=O (stereo partly specified)	3.9		
CC(=O)N[C@H]1CCC[C@H]2CC[C@@H](C(=O)N[C@H]3CCCN(C(=N)N)C3O)N2C1=O (stereo partly specified)	4.3	24	74
N=C(N)N1CCC[C@H](NC(=O)[C@@H]2CC[C@@H]3CCC(Cc4ccccc4)C(=O)N32)C1O (stereo partly specified)	4.6		

Second part, the compound after the results:

IC50 (Prothrombin) [µM]	IC50 (Serine protease 1) [µM]	IC50 (Plasminogen) [µM]	SMILES
1.4			N=C(N)N1CCC[C@H](NC(=O)[C@@H]2CC[C@@H]3CCCC(Cc4ccccc4)C(=O)N32)C1O (stereo partly specified)
0.026			CN[C@@H](C(=O)N1CCC[C@H]1C(=O)N[C@H](C=O)CCCNC(=N)N)c1ccccc1 (H-[dNMePhg]-Pro-Arg-aldehyde)
0.11		10	N=C(N)N1CCC[C@H](NC(=O)[C@@H]2CC[C@@H]3CCC[C@H](NS(=O)(=O)Cc4ccccc4)C(=O)N32)C1O (stereo partly specified)
0.11		10	N=C(N)N1CCC[C@H](NC(=O)[C@@H]2CC[C@@H]3CCC[C@H](NS(=O)(=O)c4cccc5ccccc45)C(=O)N32)C1O (stereo partly specified)
